Entries after “also recorded” stand apart in the source; their conditions may differ.
Key:
Format in all cases: cell-based, human
K562 cells [1] = assay: Differentiation inductivity, lineage receptor expression by FACS, K562 cells
Experimental: K562 cells were aliquoted at a density of 2×10^5 per well in 6-well plates and treated with 40 μg/ml of (R)-NALPCE or 30 nM of PMA (12-phorbol myristate-13-acetate, Calbiochem.), followed by incubation for 4 days. After centrifugation (1,000 rpm, 10 min), the cell pellets thus obtained were washed three times with 0.01% bovine serum albumin (BSA) in PBS. The cells were incubated with 10 μl of anti-CD41-fluorescein-5-isothiocyanate (FITC) (Dako Chemicals, Carpenteria, Calif.), 20 μl of anti-CD16-Cy-Chrome (Cy) (BD Pharmingen), 10 μl of anti-glycophorin ACD235a-phycoerythrin (PE) (Dako Chemicals, Carpenteria, Calif.), and 20 μl of anti-CD14-allophycocyanin (APC) (BD Pharmingen) in 200 μl of 0.01% bovine serum albumin (BSA)-PBS at 4° C. for 50 min while spinning to realize homogeneous fluorescent staining. After centrifugation (1,000 rpm, 10 min), the cell pellets thus obtained were washed three times with 0.01% bovine serum albumin (BSA) in PBS. Fluorescence was analyzed on a fluorescence-activated cell sorter (FACS) (Aria) using a Cellquest program.

HEL cells [2] = assay: Differentiation inductivity, lineage receptor expression by FACS, HEL cells; conditions: 5 μg/ml (R)-NALPCE 5 days or 10 nM PMA 3 days
Experimental: HEL cells were aliquoted at a density of 3×10^5 cells per well in 6-well plates and treated separately with 5 μg/ml of (R)-NALPCE and 10 nM of 12-phorbol myristate-13-acetate (PMA) (Calbiochem.), followed by incubation for 5 and 3 days, respectively. After centrifugation (1,000 rpm, 10 min), cell pellets thus obtained were washed three times with 0.01% bovine serum albumin (BSA) in PBS and incubated with 10 μl of anti-CD61-fluorescein-5-isothiocyanate (FITC) (Dako Chemicals, Carpenteria, Calif.), 20 μl of anti-CD16-Cy-Chrome (Cy) (BD Pharmingen), 10 μl of anti-glycophorin ACD235a-phycoerythrin (PE) (Dako Chemicals, Carpenteria, Calif.), and 20 μl of anti-CD14-allophycocyanin (APC) (BD Pharmingen) in 200 μl of 0.01% bovine serum albumin (BSA)-PBS at 4° C. for 50 min with spinning so as to achieve homogenous fluorescent staining over the cells. After centrifugation (1,000 rpm, 10 min), the cell pellets thus obtained were washed three times with 0.01% bovine serum albumin (BSA) in PBS. Fluorescence was analyzed on a fluorescence-activated cell sorter (FACS) (Aria) using a Cellquest program.

K562 cells [3] = assay: Cell differentiation of K562 cells on OP9 cells, optical microscopy; conditions: for cell morphology (optical microscope): 5 days
Experimental: A stromal line of OP9 cells derived from […] was aliquoted at a density of 1×10^5 cells in 6-well plates and incubated for 24 hrs. After the OP9 cells were uniformly attached onto the bottom of the plates, K562 cells were layered at a density of 1×10^5 cells on the OP9 cells in 6-well plates. The cells were treated with 40 μg/ml of (R)-NALPCE, or 500 pmole, 10 nmole or 50 nmole of PMA before incubation for 5 days. They were observed under an optical microscope with 200× magnification.

HEL cells [4] = assay: Cell differentiation of HEL cells, optical microscopy; conditions: 5 μg/ml (R)-NALPCE, 10 nmole PMA or 50 ng/ml TPO, 5 days
Experimental: HEL cells were aliquoted at a density of 3×10^5 cells per well in 6-well plates and treated with 5 μg/ml of (R)-NALPCE, 10 nmole of PMA, or 50 ng/ml of TPO, followed by incubation in a day-dependent manner for 5 days. They were observed under an optical microscope with 200× magnification.

Row | Compound | expression of CD41, CD16, glycophorin A and CD14 receptors (K562 cells [1]; K562 cells, 40 μg/ml (R)-NALPCE or 30 nM PMA, 4 days) | number of cells expressing CD41, PMA versus (R)-NALPCE (K562 cells [1]; leukemia cells derived from human bone marrow, without OP9 cells) | expression of CD61, CD235a, CD16 and CD14 receptors (HEL cells [2]) | production or secretion of thrombocytes by differentiated megakaryocytes (K562 cells [3]; (R)-NALPCE with OP9 cells, PMA treatment) | cell morphology (optical microscope) (K562 cells [3]; K562 cells on OP9 cells, 500 pmole of PMA) | cell morphology (optical microscope) (K562 cells [3]; K562 cells on OP9 cells, 10 nmole of PMA) | thrombocyte-like morphology (K562 cells [3]; K562 cells on OP9 cells, 10 nmole of PMA, 5 days or more after treatment) | cell morphology (optical microscope) (K562 cells [3]; K562 cells on OP9 cells, 50 nmole of PMA) | cell morphology (optical microscope) (HEL cells [4])
1 | CCCCCCCCCCCCCC(=O)O[C@@H]1[C@@H](C)[C@@]2(O)[C@@H](C=C(CO)C[C@]3(O)C(=O)C(C)=C[C@@H]23)[C@@H]2C(C)(C)[C@]12OC(C)=O [PMA, phorbol 12-myristate 13-acetate] | CD41 (megakaryocyte-specific receptor), CD16 (neutrophil-specific receptor), CD14 (monocyte-specific receptor) were expressed, particularly with a great increase of CD41 | increased in number more in a medium containing PMA than in a medium containing (R)-NALPCE | CD61 (megakaryocyte-specific receptor), CD16 (neutrophil-specific receptor), and CD14 (monocyte-specific receptor) were expressed, particularly with a great increase of CD61 | could not secrete thrombocytes; also recorded: could not produce thrombocyte-like cells | did not differentiate, but proliferated, like a control | increase in size, but with morphology different from that of those treated with (R)-NALPCE | no morphology similar to thrombocytes was observed | differentiate into macrophages | increased in size, but with morphology different from that upon treatment with (R)-NALPCE, and differentiated into macrophages
2 | TPO: TPO, comparison agent applied at 50 ng/ml to HEL cells; abbreviation not expanded in the text |  |  |  |  |  |  |  |  | did not undergo significant change
